This is an account of results in ChEMBL document CHEMBL2311379, “Design and synthesis of 2-(3-alkylaminophenyl)-6-(pyrrolidin-1-yl)quinolin-4-ones as potent antitumor agents” (Bioorg Med Chem Lett, 2013).

Activity calls are given as the source filed them. The calls are words filed in the database; no cut-off is given here.

Series [1] is described as follows: Cytotoxicity against human H460 cells. The format is functional, cell-based. Conditions: NCI-H460.
Series [2] is described as follows: Antitumor activity against human Hep3B cells xenografted in nude mouse assessed as inhibition of tumor growth at 20 mg/kg, ip qd administered for 5 days per week for 4 consecutive weeks. The format is functional, Hep 3B2. The conditions noted are these: 120 h, route intraperitoneal, read-out: TGI.
Series [3] concerns Mus musculus. Briefly: Toxicity in human Hep3B cells xenografted nude mouse assessed as mouse body weight changes at 20 mg/kg, ip qd administered for 5 days per week for 4 consecutive weeks. The format is organism-based, Hep 3B2. Also noted: dose 20 mg/kg, route intraperitoneal. Conditions: in vivo, 120 h.
A further series concerns Hep 3B2. Briefly: Antitumor activity against human Hep3B cells xenografted in nude mouse assessed as inhibition of tumor growth at 10 mg/kg, ip qd administered for 5 days per week for 4 consecutive weeks. Format: functional, organism-based. Further details: dose 10 mg/kg.
The next series concerns HL-60. Briefly: Cytotoxicity against human HL60 cells. The format is functional, cell-based.
The next series deals with Detroit 551. Kind of series: Cytotoxicity against human Detroit 551 cells. Format: cell-based.
Series [4] deals with Mus musculus. Kind of series: Toxicity in human Hep3B cells xenografted nude mouse assessed as mouse body weight changes at 10 mg/kg, ip qd administered for 5 days per week for 4 consecutive weeks. Further details: dose 10 mg/kg, route intraperitoneal. The format is organism-based, Hep 3B2. The conditions noted are these: in vivo, 120 h.
The nature of series [5]: Cytotoxicity against human Hep3B cells. The format is functional, cell-based, Hep 3B2.
Series [6] is described as follows: Cytotoxicity against human NCI60 cells. Format: functional.

On to `CNc1cccc(-c2cc(=O)c3cc(N4CCCC4)ccc3[nH]2)c1`, for which the IC50 in series [1] is 35 nM; in the series with HL-60, 6 nM; in the series with Detroit 551 it was over 10 µM; in series [5] it was 21 nM. Moreover, the inhibition in vivo at 20 mg/kg in series [2] was 70%. Moreover, the Activity entry in the series with Mus musculus [3] and in the series on Mus musculus [4] was “Non-toxic” throughout. Also, in the series on Hep 3B2, the TGI entry was “Active”.
With `CCNc1cccc(-c2cc(=O)c3cc(N4CCCC4)ccc3[nH]2)c1`, the IC50 in series [1] is 20 nM; in the series with HL-60, 5 nM; in the series with Detroit 551, over 10 µM; in [5] it was 20 nM.
`CN(C)c1cccc(-c2cc(=O)c3cc(N4CCCC4)ccc3[nH]2)c1`: the IC50 in series [1] is 13 nM; in the series on HL-60, 5 nM; in the series on Detroit 551, over 1 µM; in series [5], 15 nM.
`COc1cccc(-c2cc(O)c3cc(N4CCCC4)ccc3n2)c1`: the GI50 in [6] is 1.91 nM.
